Test results from a melting point compilation (Tetko et al.; mined from patent text by program, amines drawn as free bases though some values may be those of a salt).

For `COc1ccc2sc3c(c2c1)OCCNC3=O`, the melting point was 264 to 265 °C. `O=C(Nc1cccnn1)N1CCN(c2nccc(-c3ccc(F)cc3)n2)CC1` showed a melting point of 168 to 169 °C. In the case of `O=C1CCC(N2C(=O)c3cccc(NCc4cccs4)c3C2=O)C(=O)N1` (centres undefined), the melting point is reported as 223 to 225 °C. In the case of `CC(C)(C)N(Cc1ccccc1)CC(O)c1ccc(OCc2ccccc2)c2[nH]c(CO)cc12` (centres undefined), the melting point is reported as 136 °C. `O=C(O)C12CCCC(C1)C1CCC2C1` (centres undefined) gave a melting point of 158 to 160 °C. With `COC(=O)C1CCC2C3CCC4CC(O)C(OC)CC4(C)C3C(=O)CC12C` (centres undefined) the melting point was 170 to 182 °C. `COC(=O)[C@@H]1C[C@H](C(=O)O)Nc2cc(Cl)c(Cl)c(Cl)c21` (relative stereo) showed a melting point of 210 °C. Work on `Oc1cccc(C#Cc2ccc3ccc(Br)cc3n2)c1` yielded a melting point of 197 to 199 °C. Work on `COc1ccc2cc(C(=O)c3ccc(C)c(C)c3)oc2c1` yielded a melting point of 95 to 97 °C. Work on `CCCCCCCC(O)C(C)(C)C(=O)O` (centres undefined) yielded a melting point of 39 to 41 °C. With `Cc1cc(CCCOc2c(C)cc(-c3noc(CI)n3)cc2C)on1` the melting point was 89 to 90 °C. In the case of `CC(C)c1ccc(-c2cn(C)cc(-c3ccccc3)c2=O)cc1`, the melting point is reported as 159 °C. Compound `O=C(CCc1cc(C2CCCCC2)c(O)c(C2CCCCC2)c1)NCCCCCCNC(=O)CCc1cc(C2CCCCC2)c(O)c(C2CCCCC2)c1` has a melting point of 28 °C. Work on `CC(C)(C)c1ccc(C[C@@H](C(=O)O)[C@@H](O)c2ccc(F)cc2)cc1` (racemic) yielded a melting point of 102 to 104 °C. Work on `CCOC(=O)C(C)OCc1cc2nc(Cl)ccc2n1S(=O)(=O)c1ccc2nc(NC(C)=O)sc2c1` (centres undefined) yielded a melting point of 100 to 102 °C. For `NCc1ccccc1C1CCN(c2nc3c(cc2F)c(=O)c(C(=O)O)cn3C2CC2)C1` (centres undefined), the melting point was 226 to 228 °C. Work on `CCCCCCCCCCCCCCc1cccc(O)c1` yielded a melting point of 38 to 40 °C. Work on `CSC1=Nc2ccccc2N(C)c2cscc21` yielded a melting point of 113 to 115 °C. With `COc1cccc2c(CBr)coc12` the melting point was 91 to 93.5 °C. `COC(=O)C1CC2c3cccc4c3C(CN4)CC2N(C)C1` (centres undefined) showed a melting point of 110 to 120 °C. `Cc1oc(-c2ccccc2)nc1CCSc1ccc(C=O)cc1` showed a melting point of 74 to 76 °C. For `CC(C)(C)c1c(C(=O)NC2C3CC4CC(C3)CC2C4)cnn1-c1ccc(C(=O)O)cc1` (centres undefined), the melting point was 309 °C. Compound `O=C(O)CSSc1ccc([N+](=O)[O-])cc1C(Cl)(Cl)Cl` has a melting point of 140 °C. `CCCCn1c(=S)[nH]c2sccc2c1=O` gave a melting point of 200 to 203 °C. Compound `COc1ccc(C(C)C)cc1-c1cc(C(=O)NCCc2ccccc2)c(OCc2ccccc2)cc1OCc1ccccc1` has a melting point of 138 to 140 °C. With `COc1cccc(C2(c3cccc(OC)c3)CC2C=CC(=O)NC(C)CCCc2ccncc2)c1` (single isomer, unassigned) the melting point was 104 to 106 °C. `Cc1oc(-c2ccccc2)nc1COc1ccc(Sc2nc(CC(=O)O)cs2)cc1` showed a melting point of 180 to 181 °C. In the case of `CCCCCCCCCCCCCCCCCCNC(=O)NCCCS(C)=O` (centres undefined), the melting point is reported as 105 °C. With `CC1(C)CC(OC(=O)c2ccccc2C(=O)OC2CC(C)(C)N(OC3CCCCC3)C(C)(C)C2)CC(C)(C)N1OC1CCCCC1` the melting point was 149 to 151 °C. Work on `COC(=O)c1cc(OCc2ccccc2)cc(C(=O)OC)c1` yielded a melting point of 94 to 95 °C. `CCCCCCOC(=O)c1nc2cc(Cl)ccc2o1` gave a melting point of 42 to 43 °C. `O=C(O)/C=C/c1c(C2CC2)nc2ccccc2c1-c1ccc(F)cc1` gave a melting point of 173 to 174 °C. With `COc1ccc(-c2cc(=O)cc(N3CCOCC3)o2)cc1` the melting point was 220 °C. Compound `CSc1nn2c(O)cc(CN3CCN(C)CC3)nc2c1S(=O)(=O)c1ccccc1` has a melting point of over 220 °C. Work on `CC(=O)Oc1ccc2c(c1)Oc1ccccc1C2=C1C2CC3CC(C2)CC1C3` yielded a melting point of 162 to 163 °C. Work on `O=C(O)CCC(=C1SCCCS1)c1ccc(Oc2ccccc2)cc1` yielded a melting point of 154 to 155 °C. With `COC(=O)/C(=C/C=C/c1ccc2ccccc2n1)OC` the melting point was 88 °C. Work on `Cc1oc(-c2ccccc2)nc1CCOc1ccc(/C=C/CO)cc1` yielded a melting point of 127 to 128 °C. Work on `CCOC(=O)c1ccn(-c2ccc(OCC)cc2)n1` yielded a melting point of 88 to 90 °C. In the case of `CCSC1(c2ccc(Cl)cc2)OC(c2ccncc2)=Nc2ccccc21` (centres undefined), the melting point is reported as 138 to 139 °C. Work on `CC(=O)Nc1ccc(CNc2n[nH]c(N=CN(C)C)c2C#N)cc1` yielded a melting point of 206 to 211 °C. `CCCCCCCCCCOC(=O)CN(CP(=O)(ONC1CCCCC1)ONC1CCCCC1)C(=O)C(F)(F)F` showed a melting point of 79.5 to 82.5 °C. `Cc1nc(-c2ccc(C(C)(C)C)cc2)sc1C(=O)N[C@H](C)[C@](O)(Cn1cncn1)c1ccc(F)cc1F` gave a melting point of 85 to 91 °C. In the case of `O=C(O)COc1cccc2c1CCC(COC(=O)N(c1ccccc1)c1ccccc1)C2` (centres undefined), the melting point is reported as 137 to 142 °C. Compound `O=C(Nc1ccc2c(c1)CCN(Cc1ccccc1)C2)c1ccccc1-c1ccc(C(F)(F)F)cc1` has a melting point of 230 to 232 °C. With `CC(CCC(=O)O)(c1ccc(OCc2ccc3ccccc3n2)c(Cl)c1)c1ccc(OCc2ccc3ccccc3n2)c(Cl)c1` the melting point was 91 to 94 °C. `CN1CCCC(c2cccc(-n3cnc4cc(C(=O)OCC5CC5)ccc43)c2)C1` (centres undefined) showed a melting point of 111 to 113 °C. Compound `N#Cc1ncn(Cc2ccc(Cl)c(Cl)c2)c1C#N` has a melting point of 95 to 96 °C. For `COc1ccc(N2CCN(c3c(C)c4c(c(C(C)=O)c3C)OC(C)(C)C4)CC2)cc1`, the melting point was 156 to 159 °C.
